Laboratory results reported in US8637321B2, “Lipidomics approaches for central nervous system disorders” (priority 2005, dated 2014).

Columns and labels:
[1] = cited from earlier work; for risk of DM / metabolic effect: patients with schizophrenia; for weight gain, mean increases during the first year of therapy: prospective data; for effect on serum lipids / effects on serum glucose: in vivo
[2] = test system: patients with schizophrenia; experiment: plasma lipid profiling pre- and post-treatment with antipsychotics; assay type: in vivo, human; as to CE18:3n3 I/D: key: I: increase; D: decrease; as to CE18:3n6 I/D: key: I: increase; D: decrease; as to CE20:3n6 I/D: key: I: increase; D: decrease; as to CE20:5n3 I/D: key: I: increase; D: decrease; as to FA18:0 I/D: key: I: increase; D: decrease; as to FA20:4n6 I/D: key: I: increase; D: decrease; as to FA22.1n9 I/D: key: I: increase; D: decrease; as to FASAT I/D: key: I: increase; D: decrease; as to FCLC I/D: key: I: increase; D: decrease; as to LY20:3n6 I/D: key: I: increase; D: decrease; as to LY20:3n9 I/D: key: I: increase; D: decrease; as to LY20:4n3 I/D: key: I: increase; D: decrease; as to LY20:5n3 I/D: key: I: increase; D: decrease; as to PC.n9 I/D: key: I: increase; D: decrease; as to PC18:0 I/D: key: I: increase; D: decrease; as to PC18:1n9 I/D: key: I: increase; D: decrease; as to PC20:2n6 I/D: key: I: increase; D: decrease; as to PC20:3n6 I/D: key: I: increase; D: decrease; as to PC20:3n9 I/D: key: I: increase; D: decrease; as to PC20:4n3 I/D: key: I: increase; D: decrease; as to PC20:5n3 I/D: key: I: increase; D: decrease; as to PC22:0 I/D: key: I: increase; D: decrease; as to PC22:4n6 I/D: key: I: increase; D: decrease; as to PCLC I/D: key: I: increase; D: decrease; as to PE18:3n6 I/D: key: I: increase; D: decrease; as to PE20:3n6 I/D: key: I: increase; D: decrease; as to PE20:3n9 I/D: key: I: increase; D: decrease; as to PE20:5n3 I/D: key: I: increase; D: decrease; as to PE22:5n6 I/D: key: I: increase; D: decrease; as to PELC I/D: key: I: increase; D: decrease; as to SP14:0 I/D: key: I: increase; D: decrease; as to SP20:3n6 I/D: key: I: increase; D: decrease; as to SPSAT I/D: key: I: increase; D: decrease; as to TG14:0 I/D: key: I: increase; D: decrease; as to TG18:0 I/D: key: I: increase; D: decrease; as to TG20:1n9 I/D: key: I: increase; D: decrease; as to TG20:3n6 I/D: key: I: increase; D: decrease; as to TG20:4n3 I/D: key: I: increase; D: decrease; as to TGLC I/D: key: I: increase; D: decrease
Excerpt: (§1) Fifty male and female patients were recruited in two studies for metabolic profiling (Table VI and Table VII for demographics). Subjects ranged in age from 18 to 60 years and met the following inclusion criteria: a) DSM-IV criteria for schizophrenia, schizophreniform disorder, or schizoaffective disorder; b) newly hospitalized for a psychotic exacerbation in the setting of no antipsychotic treatment for at least 3 weeks prior to admission; and c) provided signed informed consent. Patients with psychoses due to psychoactive substance abuse or an underlying medical condition were excluded. Patients who were receiving treatment for diabetes mellitus or hyperlipidemia were also excluded.
The choice and dose of antipsychotic medication was based on the doctor's judgment. […] The treatment duration was 2-3 weeks. […] The mean duration of therapy was about 2 weeks for all 3 drugs in Study II. The drug groups were otherwise generally similar in severity of disease and physical characteristics (Table VI and Table VII). The 2-3 week duration permits the study of acute early effects.
All blood samples were drawn from subjects in the early morning after overnight fasting. Blood was drawn into vacutainer tubes containing sodium heparin, immediately placed on ice, and within 10 minutes, the blood was centrifuged and the plasma was transferred into polypropylene tubes and stored in a −30° C. freezer. All baseline samples were drawn prior to starting antipsychotic treatment in the study. If a patient had received a dose of an antipsychotic during the referral process (e.g., because of agitation when initially seen in a local emergency department), drawing of baseline plasma samples was delayed for 2-3 days. Follow-up samples were drawn after patients had received an average of 2-3 weeks of acute antipsychotic treatment.
A comprehensive assessment of plasma lipid profiles was performed (Lipomics Technologies, West Sacramento, Calif.) according to established methods (Watkins, et al. (2002) J. Lipid Res. 43(11):1809-17). Quantitative measurements of fatty acids in various lipid classes were determined as nmol fatty acid/gram of plasma. Lipid classes included cholesterol esters (CE), free cholesterol (FC), triacylglycerols (TG), diacylglycerols (DG), free fatty acids (FA), lysophosphatidylcholine (LY), phosphatidylcholine (PC), and phosphatidylethanolamine (PE). Lipid metabolites are identified by the lipid class and the fatty acid moiety. In the context of this invention, fatty acids are identified first by the number of carbons in the molecule (e.g., 20), the number of double bonds in the molecule (e.g., 4), and lastly the position of the double bonds (e.g., n6). To illustrate, PC20:4n6 denotes a phosphatidylcholine molecule containing a 20 carbon fatty acid with 4 double bonds at the n6 position.
Significant differences between pre- and post-drug treatment were assessed by paired t-tests. Evaluation of response to drug was assessed by two-way ANOVA. All statistics were done using R with the following functions: t.test, anova, prcomp, and g/m (Team RDC (2005) R: A language and environment for statistical computing. R Foundation for Statistical Computing). Before beginning statistical analyses, change detection was used to determine if observed signals were greater than that which could be expected by chance (noise). The chance distribution of p-values was determined by permuting the outcome groupings (Golub, et al. (1999) Science 286(5439):531-7). Briefly, P values for the appropriate comparison were calculated for each metabolite using a Student's t-test. The metabolites were ranked by p value from smallest to largest. The log of the rank versus the log of the p value for each comparison of interest was plotted and is represented by a colored line. The distribution of p values expected by chance at each rank is indicated by the shaded area. […]

[3] = test system: patients with schizophrenia; experiment: Clinical Global Impressions (CGI) Scale psychopathology assessment; assay type: in vivo, human; settings: means and standard error; for CGI Affective, Post / CGI Negative, Post / CGI Positive, Post: CGI Scale 1 to 7, higher scores greater severity; for CGI Change, Post: overall global change rating at follow-up (1-2 responders, 3-6 non-responders)
Excerpt: as §1
The choice and dose of antipsychotic medication was based on the doctor's judgment. […] The treatment duration was 2-3 weeks. […] The 2-3 week duration permits the study of acute early effects.
Psychopathology was assessed on the Clinical Global Impressions (CGI) Scale at baseline and at the time of follow-up blood draws. Scores for the CGI Scale can range from 1 to 7, with higher scores indicating greater severity of illness (Guy (1975) ECDEU Assessment Manual for Psychopharmacology: Publication ADM 76-338. Washington, D.C.: US Department of Health, Education, and Welfare). An overall global change rating was also made at the time of the follow-up blood draw.

[4] = plasma, mole percentage data, post treatment compared with pretreatment
[5] = plasma, total lipid class data (nmol/g sample), post treatment compared with pretreatment
[6] = Study I, after 2-3 weeks treatment
[7] = Study II, about 2 weeks treatment
[8] = Study I, plasma, post-treatment vs pre-treatment
[9] = Study II, plasma, post vs pre-treatment

## O=C(CCCN1CCC(O)(c2ccc(Cl)cc2)CC1)c1ccc(F)cc1 [haloperidol]
[1]
  risk of DM / metabolic effect: metabolically neutral

## CN1CCN(C2=Nc3cc(Cl)ccc3Nc3ccccc32)CC1 [clozapine]
[1]
  risk of DM / metabolic effect: higher risk

## Cc1cc2c(s1)Nc1ccccc1N=C2N1CCN(C)CC1 [Olanzapine, olanzapine]
[2]; [4]
  CE18:3n3 I/D: I
  CE18:3n6 I/D: I
  CE20:3n6 I/D: I
  CE20:5n3 I/D: I
  FA18:0 I/D: I
  FA20:4n6 I/D: I
  FA22.1n9 I/D: I
  FASAT I/D: I
  LY20:3n6 I/D: I
  LY20:3n9 I/D: I
  LY20:4n3 I/D: I
  LY20:5n3 I/D: I
  PC18:0 I/D: I
  PC18:1n9 I/D: I
  PC20:2n6 I/D: I
  PC20:3n6 I/D: I
  PC20:3n9 I/D: I
  PC20:4n3 I/D: I
  PC20:5n3 I/D: I
  PC22:0 I/D: I
  PC22:4n6 I/D: I
  PC.n9 I/D: I
  PE18:3n6 I/D: I
  PE20:3n6 I/D: I
  PE20:3n9 I/D: I
  PE20:5n3 I/D: I
  PE22:5n6 I/D: I
  SP14:0 I/D: I
  SP20:3n6 I/D: I
  SPSAT I/D: I
  TG14:0 I/D: I
  TG20:1n9 I/D: I
  TG20:3n6 I/D: I
  TG20:4n3 I/D: I
[2]; [5]
  FCLC I/D: I
  PCLC I/D: I
  PELC I/D: I
  TGLC I/D: I
[1]
  risk of DM / metabolic effect: higher risk
  weight gain, mean increases during the first year of therapy: 15.0-26.0 lbs
[3]; [6]
  CGI Affective, Post: 1.5 ± 0.2
  CGI Negative, Post: 2.2 ± 0.3
  CGI Positive, Post: 2.9 ± 0.2
[3]; Study I
  CGI Change, Post: 2.8 ± 0.2
[3]; [7]
  CGI Affective, Post: 1.2 ± 0.2
  CGI Negative, Post: 1 ± 0
  CGI Positive, Post: 2.4 ± 0.2
[3]; Study II
  CGI Change, Post: 3 ± 0.3

## O=C1Cc2cc(CCN3CCN(c4nsc5ccccc45)CC3)c(Cl)cc2N1 [ziprasidone]
[1]
  effect on serum lipids: lipid-neutral
  effects on serum glucose: minimal effects

## OCCOCCN1CCN(C2=Nc3ccccc3Sc3ccccc32)CC1 [quetiapine]
[1]
  effect on serum lipids: discrepant data
  weight gain, mean increases during the first year of therapy: 6.1-12.3 lbs

## O=C1CCc2ccc(OCCCCN3CCN(c4cccc(Cl)c4Cl)CC3)cc2N1 [Aripiprazole, aripiprazole]
[2]; [8]
  PE class concentration: increased
  fatty acid concentrations: very little change
  lipid changes overall: Minimal significant lipid changes
  n7 and n9 free fatty acids: no change
  total lipid classes other than PE: no other total lipid class changes
[2]; Study II (replication set), plasma, post vs pre-treatment
  lipid changes overall: minimal lipid changes
[2]; [9]
  fatty acid concentrations: very little change
  other lipid classes (than PE): No significant changes
[2]; Study II, plasma, post-treatment vs pre-treatment
  PE concentration: increased
[2]; patients after treatment
  plasma fatty acid compositions: affected minimally
[2]; [4]
  CE18:0 I/D: I
  LY22.5n3 I/D: I
  PC22:5n6 I/D: I
  SP14:1n5 I/D: I
  SP18:3n3 I/D: I
  SPSAT I/D: I
  TG18:0 I/D: I
  TG22:2n6 I/D: I
[2]; [5]
  PELC I/D: I
[1]
  effect on serum lipids: lipid-neutral
  effects on serum glucose: minimal effects
[3]; [6]
  CGI Affective, Post: 1.5 ± 0.3
  CGI Negative, Post: 1.3 ± 0.3
  CGI Positive, Post: 2.5 ± 0.3
[3]; Study I
  CGI Change, Post: 2.5 ± 0.3
[3]; [7]
  CGI Affective, Post: 1.4 ± 0.2
  CGI Negative, Post: 1.6 ± 0.3
  CGI Positive, Post: 2.5 ± 0.2
[3]; Study II
  CGI Change, Post: 2.8 ± 0.2
